Experimental data reported in ChEMBL document CHEMBL1806491, “The tandem chain extension aldol reaction used for synthesis of ketomethylene tripeptidomimetics targeting hPEPT1” (Bioorg Med Chem Lett, 2011).
Non-standard residues stand in square brackets, D forms with d. Residues, ends and D or L forms follow the SMILES beside them. *: point of attachment. 1Nal = N[C@@H](Cc1cccc2ccccc12)C(=O)O; Chg = N[C@H](C(=O)O)C1CCCCC1; Nva = CCC[C@H](N)C(=O)O; Bz = O=C(c1ccccc1)*

Assays:
[1] = molecular target: T1, Solute carrier family 15 member 1 (Homo sapiens) (UniProt P46059); experiment: (§1) Binding affinity to PEPT1 in human Caco2 cells assessed as inhibition of [14C]Gly-Sar apical uptake after 5 mins by liquid scintillation counting; type: cell-based; conditions: Caco-2
T1 sequence (whole entry): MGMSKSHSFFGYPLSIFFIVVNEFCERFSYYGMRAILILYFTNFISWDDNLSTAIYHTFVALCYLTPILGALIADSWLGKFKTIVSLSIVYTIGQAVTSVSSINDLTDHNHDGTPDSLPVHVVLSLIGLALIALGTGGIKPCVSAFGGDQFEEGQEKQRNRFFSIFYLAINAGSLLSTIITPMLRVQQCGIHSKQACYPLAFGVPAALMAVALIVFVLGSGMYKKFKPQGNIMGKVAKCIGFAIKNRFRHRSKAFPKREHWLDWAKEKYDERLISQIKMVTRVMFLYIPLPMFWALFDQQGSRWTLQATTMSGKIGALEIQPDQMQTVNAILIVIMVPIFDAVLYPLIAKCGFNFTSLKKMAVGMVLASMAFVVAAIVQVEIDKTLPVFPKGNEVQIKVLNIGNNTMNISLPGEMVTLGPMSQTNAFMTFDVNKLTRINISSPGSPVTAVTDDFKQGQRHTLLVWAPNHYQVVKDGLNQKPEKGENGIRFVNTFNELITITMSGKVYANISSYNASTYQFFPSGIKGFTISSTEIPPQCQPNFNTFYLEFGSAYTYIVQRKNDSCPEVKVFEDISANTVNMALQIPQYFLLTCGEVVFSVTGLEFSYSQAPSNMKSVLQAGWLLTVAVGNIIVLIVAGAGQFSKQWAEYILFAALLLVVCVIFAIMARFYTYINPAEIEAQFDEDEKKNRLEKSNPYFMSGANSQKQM

[2] = molecular target: T2, Solute carrier family 15 member 1 (Homo sapiens, UniProt P46059); experiment: as §1; type: cell-based, Caco-2
T2 sequence (P46059 whole entry): T1 sequence (whole entry)

| inhibition [1] | Ki [2] | SMILES |
| --- | --- | --- |
| Dose-dependent effect |  | N[C@@H](Cc1ccccc1)C(=O)N[C@@H](COC(=O)c1ccccc1)C(=O)N[C@H](C(=O)O)C1CCCCC1 (H-Phe-Ser(Bz)-[Chg]-OH) |
| Dose-dependent effect | 324 µM | C[C@H](NC(=O)[C@H](COC(=O)c1ccccc1)CC(=O)[C@@H](N)Cc1ccccc1)C(=O)O |
| Dose-dependent effect |  | CCC[C@H](NC(=O)[C@H](COC(=O)c1ccccc1)NC(=O)[C@@H](N)Cc1ccccc1)C(=O)O (H-Phe-Ser(Bz)-[Nva]-OH) |
| Dose-dependent effect | 251 µM | CCC[C@H](NC(=O)[C@H](COC(=O)c1ccccc1)CC(=O)[C@@H](N)Cc1ccccc1)C(=O)O |
| Dose-dependent effect |  | N[C@@H](Cc1ccccc1)C(=O)C[C@@H](COC(=O)c1ccccc1)C(=O)N[C@H](C(=O)O)C1CCCCC1 |
| Dose-dependent effect |  | N[C@@H](Cc1ccccc1)C(=O)N[C@@H](COC(=O)c1ccccc1)C(=O)N[C@@H](Cc1cccc2ccccc12)C(=O)O (H-Phe-Ser(Bz)-[1Nal]-OH) |
| Dose-dependent effect | 257 µM | C[C@H](NC(=O)[C@H](CO)NC(=O)[C@@H](N)Cc1ccccc1)C(=O)O (H-Phe-Ser-Ala-OH) |
